Results: patent US6844353B2, “Fungicidal properties of sampangine and its analogs to agriculturally important fungal plant pathogens” (The United States of America as represented by the …, priority 2003, dated 2005)

How the values were obtained:
Test in all cases: 96-well microtiter plate assay, fungal growth inhibition
B. cinerea = format: cell-based, Botrytis cinerea; conditions: B. cinerea
Excerpt: (§1) Pathogen production. Isolates of Colletotrichum acutatum Simmonds, Colletotrichum fragariae Brooks, and Colletotrichum gloeosporioides (Penz.) Penz. & Sacc. in Penz. were obtained from B. J. Smith, USDA, ARS, Small Fruit Research Station, Poplarville, Miss. Colletotrichum fragariae (isolate CF63), C. acutatum (isolate CAGoff), and C. gloeosporioides (isolate CG162) were used for all pathogen and bioautography studies. Isolate CF63 is one of the most virulent isolates at infecting strawberry plants and inducing both crown and fruit rot (Smith and Black, 1990). CF63, CAGoff, and CG162 were used as standard test isolates because of our extensive knowledge of these isolates and their known fungicide sensitivity profiles in both bioautography and microtiter formats. The three Colletotrichum species were isolated from strawberry (Fragaria x ananassa Duchesne). Botrytis cinerea Pers.: Fr, was isolated from commercial grape (Vitis vinifera L.) and Fusarium oxysporum Schlechtend: Fr from orchid (Cynoches sp.). Phomopsis viticola (Sacc.) and P. obscurans (Ellis & Everh.) Sutton were from Mike A. Ellis, Ohio State University, Wooster, Ohio. Fungi were grown on potato-dextrose agar (PDA, Difco, Detroit, Mich.) in 9 cm petri dishes and incubated in a growth chamber at 24±2° C. and under cool-white fluorescent lights ([…]·m^−2·sec^−1 light) with 12 hour photoperiod.
(§2) Inoculum preparation. Conidia were harvested from 7-10 day-old cultures by flooding plates with 5 mL of sterile distilled water and dislodging conidia by softly brushing the colonies with an L-shaped glass rod. Conidial suspensions were filtered through sterile miracloth (Calbiochem-Novabiochem Corp., La Jolla, Calif.) to remove mycelia. Conidia concentrations were determined photometrically, from a standard curve based on the percent of transmittance (% T) at 625 nm and suspensions were then adjusted with sterile distilled water to a concentration of 1.0×10^6 conidia/mL.
(§3) Microtiter assay. A standardized 96-well microtiter plate assay developed for discovery of natural product fungicidal agents was used to evaluate naturally occurring antifungal agents from Macaranga monanara. A 96-well microtiter assay was used to determine sensitivity of B. cinerea, C. acutatum, C. fragariae, C. gloeosporioides, F. oxysporum, Phomopsis viticola, and P. obscurans to the various antifungal agents in comparison with known fungicidal standards. Vinclozolin, captan, and thiabendazole, which represent three different modes of action, were used as standards in this experiment. Each fungus was challenged in a dose-response format using test compounds where the final treatment concentrations were 0.3, 3.0 and 30.0 μM. Microtiter plates (Nunc MicroWell, untreated; Roskilde, Denmark) were covered with a plastic lid and incubated in a growth chamber as described previously for fungal growth. Growth was then evaluated by measuring absorbance of each well at 620 nm using a microplate photometer (Packard Spectra Count, Packard Instrument Co., Downers Grove, Ill.). Microtiter plates (Nunc MicroWell, untreated; Roskilde, Denmark) were covered with a plastic lid and incubated in a growth chamber at 24±1° C. and 12 hour photoperiod under 60±5 μmol light. Growth was then evaluated by measuring absorbance of each well at 620 nm using a microplate photometer (Packard Spectra Count, Packard Instrument Co., Downers Grove, Ill.).
(§4) Microbioassy Experimental Design. Chemical sensitivity each of B. cinerea, C. acutatum, C. fragariae, C. gloeosporiodes, F. oxysporum, Phomopsis viticola, and P. obscurans was evaluated using 96-well plate microbioassay format. Each chemical was evaluated in duplicate at each dose (0.3, 3.0 and 30.0 μM). […]

C. fragariae = format: cell-based, Colletotrichum fragariae; conditions: C. fragariae
Excerpt: as §1, §2, §3, §4

C. acutatum = format: cell-based, Colletotrichum acutatum; conditions: C. acutatum
Excerpt: as §1, §2, §3, §4

F. oxysporum = format: cell-based, Fusarium oxysporum; conditions: F. oxysporum
Excerpt: as §1, §2, §3, §4

C. gloeosporioides = format: cell-based, Colletotrichum gloeosporioides; conditions: C. gloeosporioides
Excerpt: as §1, §2, §3, §4

SMILES | Percent inhibition−Percent Stimulation±SEM (B. cinerea; 0.3 μM, 48 hrs) [%] | Percent inhibition−Percent Stimulation±SEM (B. cinerea; 0.3 μM, 72 hrs) [%] | Percent inhibition−Percent Stimulation±SEM (B. cinerea; 3.0 μM, 48 hrs) [%] | Percent inhibition−Percent Stimulation±SEM (B. cinerea; 3.0 μM, 72 hrs) [%] | Percent inhibition−Percent Stimulation±SEM (B. cinerea; 30 μM, 48 hrs) [%] | Percent inhibition−Percent Stimulation±SEM (B. cinerea; 30 μM, 72 hrs) [%] | Percent inhibition−Percent Stimulation±SEM (C. fragariae; 0.3 μM, 48 hrs) [%] | Percent inhibition−Percent Stimulation±SEM (C. fragariae; 0.3 μM, 72 hrs) [%] | Percent inhibition−Percent Stimulation±SEM (C. fragariae; 3.0 μM, 48 hrs) [%] | Percent inhibition−Percent Stimulation±SEM (C. fragariae; 3.0 μM, 72 hrs) [%] | Percent inhibition−Percent Stimulation±SEM (C. fragariae; 30 μM, 48 hrs) [%] | Percent inhibition−Percent Stimulation±SEM (C. fragariae; 30 μM, 72 hrs) [%] | Percent inhibition−Percent Stimulation±SEM (C. acutatum; 0.3 μM, 48 hrs) [%] | Percent inhibition−Percent Stimulation±SEM (C. acutatum; 0.3 μM, 72 hrs) [%] | Percent inhibition−Percent Stimulation±SEM (C. acutatum; 3.0 μM, 48 hrs) [%] | Percent inhibition−Percent Stimulation±SEM (C. acutatum; 3.0 μM, 72 hrs) [%] | Percent inhibition−Percent Stimulation±SEM (C. acutatum; 30 μM, 48 hrs) [%] | Percent inhibition−Percent Stimulation±SEM (C. acutatum; 30 μM, 72 hrs) [%] | Percent inhibition−Percent Stimulation±SEM (F. oxysporum; 0.3 μM, 48 hrs) [%] | Percent inhibition−Percent Stimulation±SEM (F. oxysporum; 0.3 μM, 72 hrs) [%] | other results
O=C1c2ccccc2-c2nccc3c(Br)cnc1c23 [4-bromosampangine] | −41.1 ± 9.4 | −22.6 ± 13.7 | −59.2 ± 6.7 | −38.8 ± 9.4 | −29.7 ± 9.7 | 2.5 ± 8.9 | −46.3 ± 5.0 | −15.2 ± 8.2 | −87.3 ± 2.0 | −45.8 ± 5.6 | −55.9 ± 7.1 | −26.7 ± 7.3 | −23.3 ± 8.0 | −7.1 ± 6.3 | −73.4 ± 6.8 | −24.9 ± 8.7 | −33.4 ± 6.9 | −10.5 ± 6.7 | −20.4 ± 4.6 | −2.8 ± 1.9 | Percent inhibition−Percent Stimulation±SEM (F. oxysporum; 3.0 μM, 48 hrs): −42.3 ± 4.5%; Percent inhibition−Percent Stimulation±SEM (F. oxysporum; 3.0 μM, 72 hrs): −14.0 ± 2.1%; Percent inhibition−Percent Stimulation±SEM (F. oxysporum; 30 μM, 48 hrs): −25.8 ± 2.6%; Percent inhibition−Percent Stimulation±SEM (F. oxysporum; 30 μM, 72 hrs): −9.1 ± 3.0%; Percent inhibition−Percent Stimulation±SEM (C. gloeosporioides; 0.3 μM, 48 hrs): −100.0 ± 1.5%; Percent inhibition−Percent Stimulation±SEM (C. gloeosporioides; 0.3 μM, 72 hrs): −99.0 ± 0.6%; Percent inhibition−Percent Stimulation±SEM (C. gloeosporioides; 3.0 μM, 48 hrs): −98.9 ± 0.5%; Percent inhibition−Percent Stimulation±SEM (C. gloeosporioides; 3.0 μM, 72 hrs): −99.1 ± 0.4%; Percent inhibition−Percent Stimulation±SEM (C. gloeosporioides; 30 μM, 48 hrs): −96.0 ± 1.4%; Percent inhibition−Percent Stimulation±SEM (C. gloeosporioides; 30 μM, 72 hrs): −99.7 ± 0.4%
COc1cnc2c3c(nccc13)-c1ccccc1C2=O [4-methoxysampangine] | −23.0 ± 14.4 | −4.8 ± 12.6 | −59.2 ± 6.7 | −18.4 ± 5.4 | −20.3 ± 21.8 | 19.0 ± 14.3 | −15.0 ± 7.5 | −30.2 ± 7.4 | −75.2 ± 6.7 | −44.3 ± 6.5 | −67.9 ± 13.6 | −39.6 ± 6.3 | −5.1 ± 7.8 | −0.3 ± 6.4 | −75.1 ± 6.8 | −44.1 ± 6.5 | −51.3 ± 6.2 | −25.4 ± 5.4 | −10.3 ± 4.7 | 2.9 ± 4.2 | Percent inhibition−Percent Stimulation±SEM (F. oxysporum; 3.0 μM, 48 hrs): −66.8 ± 5.5%; Percent inhibition−Percent Stimulation±SEM (F. oxysporum; 3.0 μM, 72 hrs): −33.5 ± 1.9%; Percent inhibition−Percent Stimulation±SEM (F. oxysporum; 30 μM, 48 hrs): −43.6 ± 2.7%; Percent inhibition−Percent Stimulation±SEM (F. oxysporum; 30 μM, 72 hrs): −23.5 ± 1.6%; Percent inhibition−Percent Stimulation±SEM (C. gloeosporioides; 0.3 μM, 48 hrs): −48.5 ± 6.7%; Percent inhibition−Percent Stimulation±SEM (C. gloeosporioides; 0.3 μM, 72 hrs): −15.6 ± 1.9%; Percent inhibition−Percent Stimulation±SEM (C. gloeosporioides; 3.0 μM, 48 hrs): −94.4 ± 0.9%; Percent inhibition−Percent Stimulation±SEM (C. gloeosporioides; 3.0 μM, 72 hrs): −91.1 ± 2.1%; Percent inhibition−Percent Stimulation±SEM (C. gloeosporioides; 30 μM, 48 hrs): −95.9 ± 3.4%; Percent inhibition−Percent Stimulation±SEM (C. gloeosporioides; 30 μM, 72 hrs): −79.7 ± 6.0%
